Source: ChEMBL document CHEMBL5696442, “Discovery of type II inhibitors of TGFβ-activated kinase 1 (TAK1) and mitogen-activated protein kinase kinase kinase kinase 2 (MAP4K2)” (J Med Chem, 2015)
Active and inactive are the calls of the source. No cut-off for these calls is given here.

What was measured:
[1] = molecular target: RAC-gamma serine/threonine-protein kinase (Homo sapiens) (UniProt Q9Y243); assay: Inhibition of AKT3 (unknown origin) at 10 uM by Ambit Kinomescan binding assay
[2] = molecular target: Myosin-IIIa (Homo sapiens) (UniProt Q8NEV4); assay: Inhibition of MYO3A (unknown origin) at 10 uM by Ambit Kinomescan binding assay relative to control
[3] = molecular target: Ribosomal protein S6 kinase alpha-5 (Homo sapiens) (UniProt O75582); assay: Inhibition of N-terminal RPS6KA5 kinase domain 1 (unknown origin) at 10 uM by Ambit Kinomescan binding assay relative to control
[4] = molecular target: RAF proto-oncogene serine/threonine-protein kinase (Homo sapiens, UniProt P04049); assay: Inhibition of RAF1 Lys2 labeling site in human A-375 cells at 5 uM by KiNativ Profiling analysis relative to control; type: cell-based
[5] = molecular target: T1, Ephrin type-B receptor 4 (Homo sapiens) (UniProt P54760); assay: Inhibition of EPHB4 (unknown origin) at 10 uM by Ambit Kinomescan binding assay
T1 sequence (whole entry): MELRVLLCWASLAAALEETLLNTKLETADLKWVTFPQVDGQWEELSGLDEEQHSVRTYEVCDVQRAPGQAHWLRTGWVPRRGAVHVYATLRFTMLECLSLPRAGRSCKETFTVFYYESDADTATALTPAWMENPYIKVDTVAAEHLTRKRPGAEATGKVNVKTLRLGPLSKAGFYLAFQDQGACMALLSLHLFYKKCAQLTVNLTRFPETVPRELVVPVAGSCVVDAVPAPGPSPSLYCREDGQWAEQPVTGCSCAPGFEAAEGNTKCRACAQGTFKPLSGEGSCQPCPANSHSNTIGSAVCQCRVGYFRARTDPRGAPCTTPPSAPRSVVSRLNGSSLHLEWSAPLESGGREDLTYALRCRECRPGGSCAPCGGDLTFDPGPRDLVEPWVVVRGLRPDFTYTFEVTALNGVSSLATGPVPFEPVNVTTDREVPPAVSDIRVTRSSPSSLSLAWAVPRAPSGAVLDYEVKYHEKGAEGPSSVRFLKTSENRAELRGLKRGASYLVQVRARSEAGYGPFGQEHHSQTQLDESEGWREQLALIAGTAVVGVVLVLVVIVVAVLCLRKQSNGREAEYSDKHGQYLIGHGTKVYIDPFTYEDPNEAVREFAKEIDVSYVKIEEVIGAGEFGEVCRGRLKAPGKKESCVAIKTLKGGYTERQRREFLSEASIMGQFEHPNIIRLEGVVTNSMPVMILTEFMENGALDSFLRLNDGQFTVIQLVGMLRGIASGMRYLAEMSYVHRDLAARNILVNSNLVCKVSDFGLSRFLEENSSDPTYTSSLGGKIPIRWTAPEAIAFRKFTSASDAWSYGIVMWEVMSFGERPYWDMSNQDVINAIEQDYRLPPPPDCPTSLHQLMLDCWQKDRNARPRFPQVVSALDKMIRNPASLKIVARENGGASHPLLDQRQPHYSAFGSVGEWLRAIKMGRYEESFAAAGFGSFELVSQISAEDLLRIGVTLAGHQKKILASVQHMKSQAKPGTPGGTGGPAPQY

[6] = molecular target: Mitogen-activated protein kinase 1 (Homo sapiens) (UniProt P28482); assay: Inhibition of ERK2 (unknown origin) at 1 uM by Ambit Kinomescan binding assay relative to control
[7] = molecular target: T2, Serine/threonine-protein kinase 3 (Homo sapiens) (UniProt Q13188); assay: Inhibition of MST2 Lys1 labeling site in human A-375 cells at 0.5 uM by KiNativ Profiling analysis relative to control; type: cell-based
T2 sequence (whole entry): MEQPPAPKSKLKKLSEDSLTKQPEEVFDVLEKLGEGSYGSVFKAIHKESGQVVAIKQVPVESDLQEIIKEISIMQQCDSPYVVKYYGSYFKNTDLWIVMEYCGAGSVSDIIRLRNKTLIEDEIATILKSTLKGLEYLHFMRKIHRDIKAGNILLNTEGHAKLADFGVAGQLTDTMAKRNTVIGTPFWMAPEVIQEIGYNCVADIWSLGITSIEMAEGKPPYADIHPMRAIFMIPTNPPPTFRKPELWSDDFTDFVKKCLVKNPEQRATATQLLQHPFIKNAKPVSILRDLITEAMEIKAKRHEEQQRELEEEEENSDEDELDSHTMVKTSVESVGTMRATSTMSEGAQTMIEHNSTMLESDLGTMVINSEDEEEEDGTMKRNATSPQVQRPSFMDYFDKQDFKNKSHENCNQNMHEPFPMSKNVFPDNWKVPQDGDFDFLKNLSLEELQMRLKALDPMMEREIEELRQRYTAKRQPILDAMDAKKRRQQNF

Chain of Mitogen-activated protein kinase 1 (Homo sapiens) (P28482 whole entry): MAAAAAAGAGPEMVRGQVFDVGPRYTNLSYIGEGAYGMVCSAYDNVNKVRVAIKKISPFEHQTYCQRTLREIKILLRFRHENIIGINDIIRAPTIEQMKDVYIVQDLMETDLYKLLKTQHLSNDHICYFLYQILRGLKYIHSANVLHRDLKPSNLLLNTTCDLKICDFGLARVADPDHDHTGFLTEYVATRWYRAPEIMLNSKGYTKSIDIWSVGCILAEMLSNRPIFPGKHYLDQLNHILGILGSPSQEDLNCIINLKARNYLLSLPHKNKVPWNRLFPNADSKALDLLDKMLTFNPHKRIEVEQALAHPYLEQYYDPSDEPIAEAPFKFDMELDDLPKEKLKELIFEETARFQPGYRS
Chain of RAC-gamma serine/threonine-protein kinase (Homo sapiens) (Q9Y243 whole entry): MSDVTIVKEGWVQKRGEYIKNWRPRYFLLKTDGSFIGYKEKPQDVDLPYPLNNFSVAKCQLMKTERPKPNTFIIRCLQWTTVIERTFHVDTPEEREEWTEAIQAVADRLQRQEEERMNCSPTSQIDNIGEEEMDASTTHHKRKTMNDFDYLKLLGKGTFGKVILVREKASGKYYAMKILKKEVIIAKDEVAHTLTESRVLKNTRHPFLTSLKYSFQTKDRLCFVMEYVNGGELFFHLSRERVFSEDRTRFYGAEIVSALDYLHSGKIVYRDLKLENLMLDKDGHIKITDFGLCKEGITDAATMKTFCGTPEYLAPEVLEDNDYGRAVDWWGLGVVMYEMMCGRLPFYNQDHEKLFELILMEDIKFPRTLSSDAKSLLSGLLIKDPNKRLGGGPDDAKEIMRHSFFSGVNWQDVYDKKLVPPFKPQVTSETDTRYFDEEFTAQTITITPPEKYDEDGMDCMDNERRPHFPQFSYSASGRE
Chain of RAF proto-oncogene serine/threonine-protein kinase (P04049 whole entry): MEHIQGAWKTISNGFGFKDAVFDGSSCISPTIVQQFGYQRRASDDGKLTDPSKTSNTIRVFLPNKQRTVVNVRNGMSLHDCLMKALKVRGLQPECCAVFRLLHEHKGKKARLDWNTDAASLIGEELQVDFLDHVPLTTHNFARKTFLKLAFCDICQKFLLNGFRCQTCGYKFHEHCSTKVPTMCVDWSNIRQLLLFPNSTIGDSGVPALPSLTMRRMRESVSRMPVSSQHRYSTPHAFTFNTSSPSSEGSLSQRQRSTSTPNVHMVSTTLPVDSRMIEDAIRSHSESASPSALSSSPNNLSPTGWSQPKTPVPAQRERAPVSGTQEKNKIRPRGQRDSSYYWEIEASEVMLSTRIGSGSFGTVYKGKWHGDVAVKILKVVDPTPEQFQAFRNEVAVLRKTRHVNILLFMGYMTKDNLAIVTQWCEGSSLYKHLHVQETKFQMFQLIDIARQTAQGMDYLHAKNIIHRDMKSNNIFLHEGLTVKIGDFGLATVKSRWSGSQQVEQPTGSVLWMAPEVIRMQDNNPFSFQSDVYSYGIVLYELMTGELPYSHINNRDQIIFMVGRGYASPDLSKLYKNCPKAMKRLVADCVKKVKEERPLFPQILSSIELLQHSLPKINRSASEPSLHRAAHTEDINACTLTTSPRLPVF
Chain of Myosin-IIIa (Homo sapiens) (Q8NEV4 whole entry, the tested form may be a part): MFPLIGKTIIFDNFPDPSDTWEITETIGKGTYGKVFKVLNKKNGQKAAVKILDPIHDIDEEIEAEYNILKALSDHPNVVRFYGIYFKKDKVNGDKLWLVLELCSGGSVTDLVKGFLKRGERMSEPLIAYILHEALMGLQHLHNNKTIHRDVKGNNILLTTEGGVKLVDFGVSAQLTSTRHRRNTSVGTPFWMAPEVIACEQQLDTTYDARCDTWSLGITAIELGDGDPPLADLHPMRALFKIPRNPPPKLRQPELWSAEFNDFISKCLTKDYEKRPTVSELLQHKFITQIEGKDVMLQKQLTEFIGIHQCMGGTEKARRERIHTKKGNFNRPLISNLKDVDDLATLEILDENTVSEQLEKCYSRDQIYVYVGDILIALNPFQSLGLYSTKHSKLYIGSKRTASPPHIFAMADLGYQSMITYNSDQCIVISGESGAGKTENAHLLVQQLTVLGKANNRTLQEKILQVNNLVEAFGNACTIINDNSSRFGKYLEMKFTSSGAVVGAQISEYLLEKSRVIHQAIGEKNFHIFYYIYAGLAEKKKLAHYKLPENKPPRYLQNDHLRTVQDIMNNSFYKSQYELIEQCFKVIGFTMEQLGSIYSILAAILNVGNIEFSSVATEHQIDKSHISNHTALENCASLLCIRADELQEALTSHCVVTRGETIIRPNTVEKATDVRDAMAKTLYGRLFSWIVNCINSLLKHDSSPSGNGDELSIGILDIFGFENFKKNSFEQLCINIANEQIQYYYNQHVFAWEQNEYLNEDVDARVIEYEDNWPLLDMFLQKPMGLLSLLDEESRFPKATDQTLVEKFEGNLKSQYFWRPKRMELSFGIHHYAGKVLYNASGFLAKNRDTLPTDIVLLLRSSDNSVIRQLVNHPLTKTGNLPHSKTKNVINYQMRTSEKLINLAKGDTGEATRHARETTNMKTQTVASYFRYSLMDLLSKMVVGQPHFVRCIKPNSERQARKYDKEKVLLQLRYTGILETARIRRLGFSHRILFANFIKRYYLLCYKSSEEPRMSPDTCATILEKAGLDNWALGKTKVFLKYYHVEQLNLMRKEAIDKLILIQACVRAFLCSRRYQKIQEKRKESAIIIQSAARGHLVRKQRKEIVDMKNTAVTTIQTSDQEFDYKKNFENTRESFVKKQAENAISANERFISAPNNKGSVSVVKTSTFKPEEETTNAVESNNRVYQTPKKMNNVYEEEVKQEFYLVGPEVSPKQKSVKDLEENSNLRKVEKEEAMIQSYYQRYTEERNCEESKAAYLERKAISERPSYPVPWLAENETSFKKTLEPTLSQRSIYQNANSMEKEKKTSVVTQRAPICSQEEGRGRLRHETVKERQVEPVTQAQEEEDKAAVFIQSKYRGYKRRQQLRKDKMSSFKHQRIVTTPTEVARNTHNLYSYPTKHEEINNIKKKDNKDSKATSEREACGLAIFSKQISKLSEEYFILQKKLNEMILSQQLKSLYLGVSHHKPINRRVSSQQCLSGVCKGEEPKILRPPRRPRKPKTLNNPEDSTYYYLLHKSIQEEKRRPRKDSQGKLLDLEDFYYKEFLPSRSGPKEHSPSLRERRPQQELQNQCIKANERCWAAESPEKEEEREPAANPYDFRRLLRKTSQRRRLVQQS
Chain of Ribosomal protein S6 kinase alpha-5 (Homo sapiens) (O75582 whole entry, looked up, the tested form may be a part): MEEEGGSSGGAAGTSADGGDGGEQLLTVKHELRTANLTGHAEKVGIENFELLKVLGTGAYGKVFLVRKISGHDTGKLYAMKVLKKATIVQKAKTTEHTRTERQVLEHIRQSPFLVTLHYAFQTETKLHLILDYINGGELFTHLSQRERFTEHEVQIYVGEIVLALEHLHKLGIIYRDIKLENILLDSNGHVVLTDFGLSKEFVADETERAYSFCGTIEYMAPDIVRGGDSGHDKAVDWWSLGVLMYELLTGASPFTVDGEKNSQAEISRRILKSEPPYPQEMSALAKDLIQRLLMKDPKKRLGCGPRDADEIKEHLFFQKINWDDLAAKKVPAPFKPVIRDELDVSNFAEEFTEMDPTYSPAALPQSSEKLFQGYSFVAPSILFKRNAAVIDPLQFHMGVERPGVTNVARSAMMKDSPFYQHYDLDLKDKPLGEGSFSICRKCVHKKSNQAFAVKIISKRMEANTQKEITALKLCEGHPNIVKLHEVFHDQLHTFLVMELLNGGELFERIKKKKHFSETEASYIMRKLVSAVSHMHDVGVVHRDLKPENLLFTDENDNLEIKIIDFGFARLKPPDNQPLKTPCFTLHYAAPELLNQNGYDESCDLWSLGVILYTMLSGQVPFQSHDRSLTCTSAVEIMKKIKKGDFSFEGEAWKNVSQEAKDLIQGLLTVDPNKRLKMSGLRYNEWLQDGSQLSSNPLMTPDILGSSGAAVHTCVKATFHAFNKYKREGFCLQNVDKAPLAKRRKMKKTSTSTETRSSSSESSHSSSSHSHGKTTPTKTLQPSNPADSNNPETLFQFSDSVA

Row | SMILES | inhibition [1] | inhibition [2] | inhibition [3] | inhibition [4] | inhibition [5] | inhibition [6] | inhibition [7]
1 | CCN1CCN(Cc2ccc(NC(=O)c3ccc(C)c(Oc4ccnc5[nH]ccc45)c3)cc2C(F)(F)F)CC1 | inactive | 6.4% | inactive | 83.8% | inactive |  | 
2 | CCN1CCN(Cc2ccc(NC(=O)c3ccc(C)c(/C=C/c4cnc5[nH]ccc5c4OC)c3)cc2C(F)(F)F)CC1 |  |  |  |  |  | 100% | 8.2%
